Assay results published in patent US20260242419A1, “A CYCLIC PEPTIDE FOR TRAPPING INTERLEUKIN-1 BETA” (Merck Sharp & Dohme LLC, priority 2023, published 2026).
Starred links: 1 amine or outer side, 2 acyl side, 3 side chain; linkers in the order of their positions; H or OH if unused. Non-standard residues stand in square brackets, D forms with d. Residues, ends and D or L forms follow the SMILES beside them. Phe(4-(cis-4-COOH-cHex)) = N[C@@H](Cc1ccc([C@H]2CC[C@@H](C(=O)O)CC2)cc1)C(=O)O; dPro(4R-(4-pyridylmethyl)) = O=C(O)[C@H]1C[C@@H](Cc2ccncc2)CN1; X17 = CN(C)C(=O)c1ccc(-c2ccc(C[C@H](N[*:1])C(=O)[*:2])cc2)cc1; Trp(βS-Me,4-F) = C[C@@H](c1c[nH]c2cccc(F)c12)[C@H](N)C(=O)O; Bip(4'-COOH) = N[C@@H](Cc1ccc(-c2ccc(C(=O)O)cc2)cc1)C(=O)O; Ala(1-bicyclo(1.1.1)pentyl) = N[C@@H](CC12CC(C1)C2)C(=O)O; X11 = O=C([C@H]1C[C@@H](Cc2ccc(F)c3ccccc23)CN1[*:1])[*:2]; dPro(4R-Bzl(4-F)) = O=C(O)[C@H]1C[C@@H](Cc2ccc(F)cc2)CN1; dPro(3S-(4-F-Bn)) = O=C(O)[C@@H]1NCC[C@@H]1Cc1ccc(F)cc1; X20 = O=C([C@H]1C[C@@H](Cc2ccc(Cl)cc2)CN1[*:1])[*:2]; X29 = O=C([C@H]1[C@@H](Cc2ccc(Cl)cc2)CCN1[*:1])[*:2]; X4 = O=C([C@H]1[C@@H](Cc2ccncc2)CCN1[*:1])[*:2]; Ala(pyrimidin-5-yl) = N[C@@H](Cc1cncnc1)C(=O)O; Phe(4-COOH) = N[C@@H](Cc1ccc(C(=O)O)cc1)C(=O)O; Bip = N[C@@H](Cc1ccc(-c2ccccc2)cc1)C(=O)O; Pro(cis-4-F) = O=C(O)[C@@H]1C[C@H](F)CN1; X6 = O=C([C@H](Cc1ccncn1)N[*:1])[*:2]; AEF = NCCOc1ccc(C[C@H](N)C(=O)O)cc1; d(αMeD) = C[C@@](N)(CC(=O)O)C(=O)O; 4Pal = N[C@@H](Cc1ccncc1)C(=O)O; aThr = C[C@H](O)[C@H](N)C(=O)O; d(αMeS) = C[C@@](N)(CO)C(=O)O; Dab = NCC[C@H](N)C(=O)O; Aib = CC(C)(N)C(=O)O; Sar = CNCC(=O)O

What follows are compounds tested against T1, IL-1β (Homo sapiens, UniProt P01584) (assay: IL-6 assay in MRC5 cells: inhibition of IL-1β induced IL-6 secretion (AlphaLISA)). Conditions: inhibition of IL-1β induced IL-6 secretion in MRC5 cells; read-out: MRC5 IC50.
T1 construct: purchased BioLegend 579404
T1 sequence (P01584 117-269): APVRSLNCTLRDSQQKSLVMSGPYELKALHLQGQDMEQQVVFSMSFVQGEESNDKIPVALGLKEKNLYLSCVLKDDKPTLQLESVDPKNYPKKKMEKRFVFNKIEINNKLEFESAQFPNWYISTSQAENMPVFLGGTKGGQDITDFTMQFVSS
Type: cell-based
Procedure, shortened: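 Compound was pre-incubated 1 h at ambient temperature with recombinant human IL-1β at 2λ EC80 before adding human lung fibroblast MRC5 cells (3000/well) in EMEM with 0.025% BSA. After overnight culture at 37 °C, 5% CO2, secreted IL-6 in conditioned medium was measured by AlphaLISA; IC50 from 4-parameter logistic fits.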

Structure (SMILES)	IC50 [pM]
C[C@@H](c1c[nH]c2cccc(F)c12)[C@@H]1NC(=O)[C@@H]2C[C@H](F)CN2C(=O)CNC(=O)[C@H](Cc2ccc(C(=O)O)cc2)NC(=O)[C@H](Cc2ccncc2)NC(=O)[C@H](Cc2ccc(-c3ccc(C(=O)O)cc3)cc2)NC(=O)[C@H]2C[C@@H](Cc3ccc(F)c4ccccc34)CN2C(=O)CNC(=O)[C@H](CCN)NC(=O)[C@H](CCC(N)=O)NC(=O)[C@H](Cc2cncnc2)NC(=O)[C@@](C)(CC(=O)O)NC(=O)[C@H](Cc2c[nH]c3ccccc23)NC(=O)[C@H](CO)NC(=O)C(C)(C)NC1=O [Example 327] (cyclo([Bip(4'-COOH)][4Pal][Phe(4-COOH)]G[Pro(cis-4-F)][Trp(βS-Me,4-F)][Aib]SW[d(αMeD)][Ala(pyrimidin-5-yl)]Q[Dab]G[X11]))	16
C[C@@H](c1c[nH]c2cccc(F)c12)[C@@H]1NC(=O)[C@@H]2C[C@H](F)CN2C(=O)CNC(=O)[C@H](Cc2ccc(C(=O)O)cc2)NC(=O)[C@H](Cc2ccncc2)NC(=O)[C@H](Cc2ccc(-c3ccc(C(=O)O)cc3)cc2)NC(=O)[C@H]2[C@@H](Cc3ccc(F)cc3)CCN2C(=O)CNC(=O)[C@H](CCN)NC(=O)[C@H](CCC(N)=O)NC(=O)[C@H](Cc2cncnc2)NC(=O)[C@@](C)(CC(=O)O)NC(=O)[C@H](Cc2c[nH]c3ccccc23)NC(=O)[C@H](CO)NC(=O)C(C)(C)NC1=O [Example 331] (cyclo([Bip(4'-COOH)][4Pal][Phe(4-COOH)]G[Pro(cis-4-F)][Trp(βS-Me,4-F)][Aib]SW[d(αMeD)][Ala(pyrimidin-5-yl)]Q[Dab]G[dPro(3S-(4-F-Bn))]))	11
C[C@@H](c1c[nH]c2cccc(F)c12)[C@@H]1NC(=O)[C@@H]2C[C@H](F)CN2C(=O)CNC(=O)[C@H](Cc2ccc(C(=O)O)cc2)NC(=O)[C@H](Cc2ccncc2)NC(=O)[C@H](Cc2ccc(-c3ccc(C(=O)O)cc3)cc2)NC(=O)[C@H]2C[C@@H](Cc3ccc(F)cc3)CN2C(=O)CNC(=O)[C@H](CCN)NC(=O)[C@H](CCC(N)=O)NC(=O)[C@H](Cc2ccncn2)NC(=O)[C@@](C)(CC(=O)O)NC(=O)[C@H](Cc2c[nH]c3ccccc23)NC(=O)[C@H](CO)NC(=O)C(C)(C)NC1=O [Example 332] (cyclo([Bip(4'-COOH)][4Pal][Phe(4-COOH)]G[Pro(cis-4-F)][Trp(βS-Me,4-F)][Aib]SW[d(αMeD)][X6]Q[Dab]G[dPro(4R-Bzl(4-F))]))	13
C[C@@H](c1c[nH]c2cccc(F)c12)[C@@H]1NC(=O)[C@@H]2C[C@H](F)CN2C(=O)CNC(=O)[C@H](Cc2ccc(C(=O)O)cc2)NC(=O)[C@H](Cc2ccncc2)NC(=O)[C@H](Cc2ccc(-c3ccccc3)cc2)NC(=O)[C@H]2C[C@@H](Cc3ccncc3)CN2C(=O)CNC(=O)[C@H](CCN)NC(=O)[C@H](CCC(N)=O)NC(=O)[C@H](Cc2cncnc2)NC(=O)[C@@](C)(CC(=O)O)NC(=O)[C@H](Cc2c[nH]c3ccccc23)NC(=O)[C@H](CO)NC(=O)C(C)(C)NC1=O [Example 333] (cyclo([Bip][4Pal][Phe(4-COOH)]G[Pro(cis-4-F)][Trp(βS-Me,4-F)][Aib]SW[d(αMeD)][Ala(pyrimidin-5-yl)]Q[Dab]G[dPro(4R-(4-pyridylmethyl))]))	22
C[C@H](O)[C@@H]1NC(=O)[C@@](C)(CC(=O)O)NC(=O)[C@H](Cc2c[nH]c3ccccc23)NC(=O)[C@H](CO)NC(=O)C(C)(C)NC(=O)[C@H]([C@@H](C)c2c[nH]c3cccc(F)c23)NC(=O)[C@@H]2C[C@H](F)CN2C(=O)CNC(=O)[C@H](Cc2ccc(C(=O)O)cc2)NC(=O)[C@H](CC23CC(C2)C3)NC(=O)[C@H](Cc2ccc([C@H]3CC[C@@H](C(=O)O)CC3)cc2)NC(=O)[C@H]2C[C@@H](Cc3ccncc3)CN2C(=O)CNC(=O)[C@H](CCN)NC(=O)[C@H](CCC(N)=O)NC1=O [Example 334] (cyclo([Phe(4-(cis-4-COOH-cHex))][Ala(1-bicyclo(1.1.1)pentyl)][Phe(4-COOH)]G[Pro(cis-4-F)][Trp(βS-Me,4-F)][Aib]SW[d(αMeD)][aThr]Q[Dab]G[dPro(4R-(4-pyridylmethyl))]))	22
C[C@@H](c1c[nH]c2cccc(F)c12)[C@@H]1NC(=O)[C@@H]2C[C@H](F)CN2C(=O)CNC(=O)[C@H](Cc2ccc(C(=O)O)cc2)NC(=O)[C@H](CC23CC(C2)C3)NC(=O)[C@H](Cc2ccc([C@H]3CC[C@@H](C(=O)O)CC3)cc2)NC(=O)[C@H]2C[C@@H](Cc3ccncc3)CN2C(=O)CNC(=O)[C@H](CCN)NC(=O)[C@H](CCC(N)=O)NC(=O)[C@H](Cc2cncnc2)NC(=O)[C@@](C)(CC(=O)O)NC(=O)[C@H](Cc2c[nH]c3ccccc23)NC(=O)[C@H](CO)NC(=O)C(C)(C)NC1=O [Example 335] (cyclo([Phe(4-(cis-4-COOH-cHex))][Ala(1-bicyclo(1.1.1)pentyl)][Phe(4-COOH)]G[Pro(cis-4-F)][Trp(βS-Me,4-F)][Aib]SW[d(αMeD)][Ala(pyrimidin-5-yl)]Q[Dab]G[dPro(4R-(4-pyridylmethyl))]))	22
CC(=O)NCCOc1ccc(C[C@@H]2NC(=O)[C@H]3C[C@@H](Cc4ccncc4)CN3C(=O)CNC(=O)[C@H](CCN)NC(=O)[C@H](CCC(N)=O)NC(=O)[C@H](Cc3ccccc3)NC(=O)C(C)(C)NC(=O)[C@H](Cc3c[nH]c4ccccc34)NC(=O)[C@H](CCC(=O)O)NC(=O)C(C)(C)NC(=O)[C@H]([C@@H](C)c3c[nH]c4cccc(F)c34)NC(=O)[C@@H]3C[C@H](F)CN3C(=O)CNC(=O)[C@H](Cc3ccc(C(=O)O)cc3)NC(=O)[C@H](Cc3ccncc3)NC2=O)cc1 [Example 336] (cyclo([AEF](Ac)[4Pal][Phe(4-COOH)]G[Pro(cis-4-F)][Trp(βS-Me,4-F)][Aib]EW[Aib]FQ[Dab]G[dPro(4R-(4-pyridylmethyl))]))	23
C[C@H](O)[C@@H]1NC(=O)[C@@](C)(CC(=O)O)NC(=O)[C@H](Cc2c[nH]c3ccccc23)NC(=O)[C@H](CO)NC(=O)C(C)(C)NC(=O)[C@H]([C@@H](C)c2c[nH]c3cccc(F)c23)NC(=O)[C@@H]2C[C@H](F)CN2C(=O)CNC(=O)[C@H](Cc2ccc(C(=O)O)cc2)NC(=O)[C@H](Cc2ccncc2)NC(=O)[C@H](Cc2ccc(-c3ccc(C(=O)O)cc3)cc2)NC(=O)[C@H]2C[C@@H](Cc3ccncc3)CN2C(=O)CN(C)C(=O)[C@H](CCN)NC(=O)[C@H](CCC(N)=O)NC1=O [Example 337] (cyclo([Bip(4'-COOH)][4Pal][Phe(4-COOH)]G[Pro(cis-4-F)][Trp(βS-Me,4-F)][Aib]SW[d(αMeD)][aThr]Q[Dab][Sar][dPro(4R-(4-pyridylmethyl))]))	22
C[C@@H](c1c[nH]c2cccc(F)c12)[C@@H]1NC(=O)[C@@H]2C[C@H](F)CN2C(=O)CNC(=O)[C@H](Cc2ccc(C(=O)O)cc2)NC(=O)[C@H](Cc2ccncc2)NC(=O)[C@H](Cc2ccc(-c3ccc(C(=O)N(C)C)cc3)cc2)NC(=O)[C@H]2C[C@@H](Cc3ccncc3)CN2C(=O)CNC(=O)[C@H](CCN)NC(=O)[C@H](CCC(N)=O)NC(=O)[C@H](Cc2cncnc2)NC(=O)[C@@](C)(CO)NC(=O)[C@H](Cc2c[nH]c3ccccc23)NC(=O)[C@H](CO)NC(=O)C(C)(C)NC1=O [Example 338] (cyclo([X17][4Pal][Phe(4-COOH)]G[Pro(cis-4-F)][Trp(βS-Me,4-F)][Aib]SW[d(αMeS)][Ala(pyrimidin-5-yl)]Q[Dab]G[dPro(4R-(4-pyridylmethyl))]))	18

Further compounds by falling IC50, results first:

IC50 [pM]	Structure (SMILES)
11	C[C@@H](c1c[nH]c2cccc(F)c12)[C@@H]1NC(=O)[C@@H]2C[C@H](F)CN2C(=O)CNC(=O)[C@H](Cc2ccc(C(=O)O)cc2)NC(=O)[C@H](Cc2ccncc2)NC(=O)[C@H](Cc2ccc(-c3ccc(C(=O)O)cc3)cc2)NC(=O)[C@H]2[C@@H](Cc3ccncc3)CCN2C(=O)CNC(=O)[C@H](CCN)NC(=O)[C@H](CCC(N)=O)NC(=O)[C@H](Cc2cncnc2)NC(=O)C(C)(C)NC(=O)[C@H](Cc2c[nH]c3ccccc23)NC(=O)[C@H](CO)NC(=O)C(C)(C)NC1=O [Example 326] (cyclo([Bip(4'-COOH)][4Pal][Phe(4-COOH)]G[Pro(cis-4-F)][Trp(βS-Me,4-F)][Aib]SW[Aib][Ala(pyrimidin-5-yl)]Q[Dab]G[X4]))
9	C[C@@H](c1c[nH]c2cccc(F)c12)[C@@H]1NC(=O)[C@@H]2C[C@H](F)CN2C(=O)CNC(=O)[C@H](Cc2ccc(C(=O)O)cc2)NC(=O)[C@H](Cc2ccncc2)NC(=O)[C@H](Cc2ccc(-c3ccc(C(=O)O)cc3)cc2)NC(=O)[C@H]2C[C@@H](Cc3ccc(Cl)cc3)CN2C(=O)CNC(=O)[C@H](CCN)NC(=O)[C@H](CCC(N)=O)NC(=O)[C@H](Cc2cncnc2)NC(=O)[C@@](C)(CC(=O)O)NC(=O)[C@H](Cc2c[nH]c3ccccc23)NC(=O)[C@H](CO)NC(=O)C(C)(C)NC1=O [Example 329] (cyclo([Bip(4'-COOH)][4Pal][Phe(4-COOH)]G[Pro(cis-4-F)][Trp(βS-Me,4-F)][Aib]SW[d(αMeD)][Ala(pyrimidin-5-yl)]Q[Dab]G[X20]))
8	C[C@@H](c1c[nH]c2cccc(F)c12)[C@@H]1NC(=O)[C@@H]2C[C@H](F)CN2C(=O)CNC(=O)[C@H](Cc2ccc(C(=O)O)cc2)NC(=O)[C@H](Cc2ccncc2)NC(=O)[C@H](Cc2ccc(-c3ccc(C(=O)O)cc3)cc2)NC(=O)[C@H]2[C@@H](Cc3ccncc3)CCN2C(=O)CNC(=O)[C@H](CCN)NC(=O)[C@H](CCC(N)=O)NC(=O)[C@H](Cc2cncnc2)NC(=O)[C@@](C)(CC(=O)O)NC(=O)[C@H](Cc2c[nH]c3ccccc23)NC(=O)[C@H](CO)NC(=O)C(C)(C)NC1=O [Example 328] (cyclo([Bip(4'-COOH)][4Pal][Phe(4-COOH)]G[Pro(cis-4-F)][Trp(βS-Me,4-F)][Aib]SW[d(αMeD)][Ala(pyrimidin-5-yl)]Q[Dab]G[X4]))
8	C[C@@H](c1c[nH]c2cccc(F)c12)[C@@H]1NC(=O)[C@@H]2C[C@H](F)CN2C(=O)CNC(=O)[C@H](Cc2ccc(C(=O)O)cc2)NC(=O)[C@H](Cc2ccncc2)NC(=O)[C@H](Cc2ccc(-c3ccc(C(=O)O)cc3)cc2)NC(=O)[C@H]2[C@@H](Cc3ccc(Cl)cc3)CCN2C(=O)CNC(=O)[C@H](CCN)NC(=O)[C@H](CCC(N)=O)NC(=O)[C@H](Cc2cncnc2)NC(=O)[C@@](C)(CC(=O)O)NC(=O)[C@H](Cc2c[nH]c3ccccc23)NC(=O)[C@H](CO)NC(=O)C(C)(C)NC1=O [Example 330] (cyclo([Bip(4'-COOH)][4Pal][Phe(4-COOH)]G[Pro(cis-4-F)][Trp(βS-Me,4-F)][Aib]SW[d(αMeD)][Ala(pyrimidin-5-yl)]Q[Dab]G[X29]))
